{"source": "patent US8546091B2", "about": "“AKT phosphorylation at Ser473 as an indicator for taxane-based chemotherapy” (The United States of America, as represented by the …, priority 2009, dated 2013)", "key": {"[1]": {"test_system": "node-positive breast cancer", "conditions": "NSABP B-28, Mamounas et al. 2005; paclitaxel after AC vs AC alone; cited from earlier work"}, "cancer cells": {"test_system": "cancer cells", "conditions": "literature (MacKeigan 2002; Asakuma 2003); cited from earlier work"}, "[2]": {"test_system": "node-positive breast cancer", "type": "in vivo, human", "excerpt": "We designed and conducted a study to correlate Akt phosphorylation with clinical outcome through the primary tumor specimens from the National Surgical Adjuvant Breast and Bowel Project B-28 trial. We tested the hypothesis that phosphorylation of Akt at serine 473 (“pAkt”) predicts a benefit for women with node-positive breast cancer from the sequential addition of paclitaxel after adjuvant doxorubicin plus cyclophosphamide chemotherapy.\nEligible patients signed an approved informed consent which includes tissue collection and research use of collected tissue conforming to federal and institutional guidelines. In this study, the biomarker protocol for the evaluation of Akt phosphorylation in association with disease-free survival and overall survival in patients with node-positive breast cancer treated with either adjuvant doxorubicin plus cyclophosphamide only or followed by paclitaxel was approved by the Institutional Review Boards of the National Cancer institute (Bethesda, Md.) and the National Surgical Adjuvant Breast and Bowel Project (Pittsburgh, Pa.).\nHER2 status on the microarray sections were determined by the NSABP central pathology laboratory using PathVision fluorescent in situ hybridization (FISH) assay according to the FDA approved protocol per the manufacturer (Vysis, Downers Grove. Ill.). Data were expressed as the number of HER2 genes per chromosome 17 centromere: tumors with a ratio of […] were classified as HER2-positive, and those with a ratio of <2 were defined as HER2-negative. Estrogen receptor status in tissue microarray sections were also determined by the NSABP central pathology laboratory by immunohistochemistry according to the FDA approved protocol provided by DAKO (PharmDx kit; Carpinteria, Calif.). A positive result (tumor cell nuclear staining) for ER is defined as a total score (ranging from 0, 2-8) of ≧3. The total score is the sum of a proportion score from 0 to 5 and an intensity score of 0 to 3.\nSections were incubated with primary antibody in 1 to 100 dilution for 1 hour at room temperature, and binding of the antibody to its antigenic sites was amplified using Vectastain Elite avidin-biotin peroxidase complex kits (Vector Laboratories, Burlingame, Calif.). The antigen-antibody reaction sites were visualized using 3,3-diaminobenzidine for 7 minutes and, subsequently, sections were counterstained with Mayer's hematoxylin. Breast cancer cell line MDA-MB-468 which expresses pAkt, and a breast cancer specimen known to express pAkt were utilized as positive controls. Negative control was performed using isotype immunoglobulins appropriate to the primary antibodies being used (Zymed Laboratories, South San Francisco, Calif.). The immunostained tissue microarray cores with either cytoplasmic or membranous or nuclear signal were analyzed with the assistance of an Automated Cellular Imaging System (DAKO), blinded to all clinical information, after excluding tissue cores with less than 5% of invasive tumor cells present. The staining intensity and percentage of tumor cells on each tissue core was calculated by the digital imaging system. The staining index ranging from 0 to 62.8 reporting levels of Akt phosphorylation at Ser473 was determined by the percentage multiplied by intensity of staining divided by 100 (intensity X percentage/100) in tumor cells, in which the intensity was subtracted from the average tissue readout of three normal tissue cores. These cores serve as the position markers and tissue negative controls for each array slide."}, "[3]": {"test_system": "Akt phosphorylation at serine 473", "conditions": "literature (MacKeigan 2002; Asakuma 2003); cited from earlier work"}}, "note": "Where two headings read alike, the source gives them in different places."}
{"smiles": "CC(=O)O[C@H]1C(=O)[C@@]2(C)[C@H]([C@H](OC(=O)c3ccccc3)[C@]3(O)C[C@H](OC(=O)[C@H](O)[C@@H](NC(=O)c4ccccc4)c4ccccc4)C(C)=C1C3(C)C)[C@]1(OC(C)=O)CO[C@@H]1C[C@@H]2O", "note": "[paclitaxel]", "values": [{"measurement": "effect on disease-free and overall survival", "setting": "[1]", "value": "significantly improve disease-free survival but not overall survival"}, {"measurement": "effect on survival of cancer cells", "setting": "cancer cells", "value": "reduces the survival cancer cells"}, {"measurement": "hazard ratio for disease-free survival", "setting": "[2]; 606 patients with pAkt positive cancer, with vs without paclitaxel, FIG. 1B, P=0.027", "value": 0.75}, {"measurement": "hazard ratio for disease-free survival", "setting": "[2]; 975 patients with pAkt-negative cancer, with vs without paclitaxel, FIG. 1A, P=0.44", "value": 1.08}, {"measurement": "hazard ratio for overall survival", "setting": "[2]; 1581 patients with pAkt measurement, follow-up 9.1 years, 95% CI 0.79-1.15, P=0.63", "value": 0.96}, {"measurement": "hazard ratio for disease-free survival", "setting": "[2]; 1581 patients with pAkt measurement, follow-up 9.1 years, 95% CI 0.81-1.10, P=0.46", "value": 0.94}, {"measurement": "improvement in disease-free survival", "setting": "[2]; entire B-28 population with pAkt-Ser473 measurements, positive or negative, approximate 10 years of follow-up", "value": 6, "unit": "%"}, {"measurement": "hazard ratio for overall survival", "setting": "[2]; entire B-28 population, approximate 10 years of follow-up, addition of paclitaxel to AC vs AC, 95% CI 0.81-1.06, P=0.25", "value": 0.92}, {"measurement": "hazard ratio for disease-free survival", "setting": "[2]; entire B-28 population, approximate 10 years of follow-up, sequential addition of paclitaxel to AC vs AC, 95% CI 0.79 to 0.99, P=0.034", "value": 0.89}, {"measurement": "adjusted hazard ratio for disease-free survival", "setting": "[2]; pAkt negative cancer, multivariate proportional-hazards model, FIG. 1C, P=0.81", "value": 1.02}, {"measurement": "adjusted hazard ratio for disease-free survival", "setting": "[2]; pAkt positive breast cancer, multivariate proportional-hazards model, FIG. 1C, P=0.02", "value": 0.74}, {"measurement": "hazard ratio for overall survival", "setting": "[2]; pAkt-negative cancer, P=0.74", "value": 1.04}, {"measurement": "adjusted hazard ratio for disease-free survival", "setting": "[2]; pAkt-negative, HER2-negative tumors, FIG. 3C, P=0.36", "value": 1.12}, {"measurement": "adjusted hazard ratio for disease-free survival", "setting": "[2]; pAkt-negative, HER2-positive tumors, FIG. 3A, P=0.88", "value": 0.96}, {"measurement": "adjusted hazard ratio for disease-free survival", "setting": "[2]; pAkt-negative, estrogen-receptor positive tumors, FIG. 2A, P=0.64", "value": 1.06}, {"measurement": "adjusted hazard ratio for disease-free survival", "setting": "[2]; pAkt-negative, estrogen-receptor-negative tumors, FIG. 2C, P=0.79", "value": 1.04}, {"measurement": "improvement in disease-free survival", "setting": "[2]; pAkt-positive breast cancer, sequential addition of paclitaxel", "value": 26, "unit": "%"}, {"measurement": "hazard ratio for overall survival", "setting": "[2]; pAkt-positive cancer, P=0.226", "value": 0.83}, {"measurement": "adjusted hazard ratio for disease-free survival", "setting": "[2]; pAkt-positive, HER2-negative tumors, FIG. 3D, P=0.03", "value": 0.70}, {"measurement": "adjusted hazard ratio for disease-free survival", "setting": "[2]; pAkt-positive, HER2-positive tumors, FIG. 3B, P=0.28", "value": 0.72}, {"measurement": "adjusted hazard ratio for disease-free survival", "setting": "[2]; pAkt-positive, estrogen receptor-negative tumors, FIG. 2D, P=0.052", "value": 0.66}, {"measurement": "adjusted hazard ratio for disease-free survival", "setting": "[2]; pAkt-positive, estrogen receptor-positive tumors, FIG. 2B, P=0.24", "value": 0.82}, {"measurement": "effect on Akt phosphorylation at serine 473", "setting": "[3]", "value": "inhibits Akt phosphorylation at serine 473"}]}
